According to patent publication US12617756B2 (ABIVAX, priority 2019, dated 2026):

These compounds were tested on RSV A2 (assay: Screening for RSV inhibition using Viral ToxGlo assay (cytopathic effect inhibition in HEp-2 cells)). Details: human respiratory syncytial virus; RSV A2 in HEp-2 cells, MOI 0.5, 72h p.i., cytopathic effect inhibition relative to virus control, Viral ToxGlo luminescence.
Format: cell-based, Respiratory Syncytial Virus (RSV)
In short: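 HEp-2 cells in 2% FBS medium infected with RSV A2 right after compound addition (max 1% DMSO), uninfected wells used for cytotoxicity. After 72 h p.i. at 37 °C/5% CO2, cell viability read by Viral ToxGlo luminescence as measure of cytopathic effect.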
`CC(C)CC1(NC(=O)c2cccc(Nc3ccc(C(=O)N=C4NCCN4)cc3C3CC3)c2)CC1` [Compound 107, 3-cyclopropyl-N-[(2Z)-imidazolidin-2-ylidene]-4-[(3-{[1-(2-methylpropyl)cyclopropyl]carbamoyl}phenyl)amino]benzamide] was tested, and the EC50 was 14 nM.
For `O=C(N=C1NCCN1)c1ccc(Nc2cccc(C(=O)NCC3CCCO3)c2Cl)c(C2CC2)c1` (stereo not shown) [Compound 109, 4-[(2-chloro-3-{[(oxolan-2-yl)methyl]carbamoyl}phenyl)amino]-3-cyclopropyl-N-[(2E)-imidazolidin-2-ylidene]benzamide], the EC50 was 45 nM.
In the case of `CC(=O)N1CCN/C1=N\C(=O)c1ccc(Nc2cccc(NC(=O)C(C)C)c2)c(C2CC2)c1` [Compound 110, N-[(2E)-1-acetylimidazolidin-2-ylidene]-3-cyclopropyl-4-{[3-(2-methylpropanamido)phenyl]amino}benzamide], the EC50 is reported as 324 nM.
Work on `CC(C)(C)C1(NC(=O)c2cccc(Nc3ccc(C(=O)N=C4NCCN4)cc3C3CC3)c2)CC1` [Compound 111, 4-({3-[(1-tert-butylcyclopropyl)carbamoyl]phenyl}amino)-3-cyclopropyl-N-[(2Z)-imidazolidin-2-ylidene]benzamide] yielded an EC50 of 30.4 nM.
In the case of `CC(C)NC(=O)c1cc(C#N)cc(Nc2ccc(C(=O)N=C3NCCN3)cc2C2CC2)c1` [Compound 112, 4-({3-cyano-5-[(propan-2-yl)carbamoyl]phenyl}amino)-3-cyclopropyl-N-[imidazolidin-2-ylidene]benzamide], the EC50 is reported as 710 nM.
`CC(C)C(=O)Nc1cccc(Nc2ccc(C(=O)N=C3NCCN3CC(F)F)cc2C2CC2)c1` [Compound 113, 3-cyclopropyl-N-[1-(2,2-difluoroethyl)imidazolidin-2-ylidene]-4-{[3-(2-methylpropanamido)phenyl]amino}benzamide] showed an EC50 of 59.9 nM.
In the case of `O=C(N=C1NCCN1)c1ccc(Nc2cccc(C(=O)NC3(C(F)(F)F)CC3)c2Cl)c(C2CC2)c1` [Compound 114, 4-[(2-chloro-3-{[1-(trifluoromethyl)cyclopropyl]carbamoyl}phenyl)amino]-3-cyclopropyl-N-[imidazolidin-2-ylidene]benzamide], the EC50 is reported as 32.6 nM.
`O=C(N=C1NCCN1)c1ccc(Nc2cccc(C(=O)N3CCOCC3)c2C(F)(F)F)c(C2CC2)c1` [Compound 115, 3-cyclopropyl-N-[imidazolidin-2-ylidene]-4-{[3-(morpholine-4-carbonyl)-2-(trifluoromethyl)phenyl]amino}benzamide] showed an EC50 of 29.6 nM.
`O=C(N=C1NCCN1)c1ccc(Nc2cccc(C(=O)NC3CC3)c2C(F)(F)F)c(C2CC2)c1` [Compound 116, 3-cyclopropyl-4-f{[3-(cyclopropylcarbamoyl)-2-(trifluoromethyl)phenyl]amino}-N—[imidazolidin-2-ylidene]benzamide] showed an EC50 of 131 nM.
`CC1(NC(=O)c2cccc(Nc3c(F)cc(C(=O)N=C4NCCN4)cc3C3CC3)c2)CC1` [Compound 117, 3-cyclopropyl-5-fluoro-N-[imidazolidin-2-ylidene]-4-({3-[(1-methylcyclopropyl)carbamoyl]phenyl}amino)benzamide] showed an EC50 of 5.6 nM.
`O=C(N=C1NCCN1)c1ccc(Nc2cc(F)cc(C(=O)N3CCOCC3)c2Cl)c(C2CC2)c1` [Compound 118, 4-{[2-chloro-5-fluoro-3-(morpholine-4-carbonyl)phenyl]amino}-3-cyclopropyl-N-[imidazolidin-2-ylidene]benzamide] was tested, and the EC50 was 27 nM.
`O=C(N=C1NCCN1)c1cc(F)c(Nc2cccc(C(=O)N3CCOCC3)c2)c(C2CC2)c1` [Compound 119, 3-cyclopropyl-5-fluoro-N-[imidazolidin-2-ylidene]-4-{[3-(morpholine-4-carbonyl)phenyl]amino}benzamide] gave an EC50 of 108 nM.
Work on `O=C(N=C1NCCN1)c1ccc(Nc2cccc(C(=O)N3C[C@@H]4C[C@H]3CO4)c2Cl)c(C2CC2)c1` [Compound 120, 4-({2-chloro-3-[(1S,4S)-2-oxa-5-azabicyclo[2.2.1]heptane-5-carbonyl]phenyl}amino)-3-cyclopropyl-N—[imidazolidin-2-ylidene]benzamide] yielded an EC50 of 19.5 nM.
